{"source": "paper PMC11413854", "about": "“Reversible Control of Native GluN2B-Containing NMDA Receptors with Visible Light” (ACS Chemical Neuroscience, 2024)", "tested_on": "Xenopus laevis tadpoles", "assay": "Behavioral test: locomotion of free-swimming tadpoles under light cycles", "format": "in vivo", "conditions": "for reduction in locomotor activity in the dark vs baseline / Normalized travelled distance by tadpoles (/baseline/control), mean: 5 µM; for reduction in locomotor activity in the dark vs baseline: 45 min incubation; for Normalized travelled distance by tadpoles (/baseline): per well (mean of 3 tadpoles)", "procedure": "In our behavioral assay, tadpoles were placed in groups of three animals per well of a 12-well plate allowing them to swim freely. Their baseline locomotion was recorded for 3 min in the dark, after which they were incubated for 45 min in a solution containing either 0.1% DMSO (control) or 5 μM OptoNAM-3 (refer to Methods and Figure S5A for details). For each condition (control and OptoNAM-3), tadpole locomotion was recorded for 3 min in the dark, followed by cycles of 1 min illumination at 365 nm and then 550 nm, and interspersed with 3 min rest periods to avoid bias due to a poststimulation refractory period[51],[56] (Figure S5A). We also conducted the same protocol using 460/550 nm light cycles, as OptoNAM-3 can switch from the trans to cis state upon exposure to blue light at 460 nm when pre-equilibrated on cells (see above). The tadpole traveled distance was calculated from precise position coordinates of tadpole body parts across frames, assessed by automatic position multianimal tracking using the open-source program DeepLabCut.[57],[58]Xenopus laevis tadpoles present nonvisual photoreceptors that generate a photomotor response characterized by an increase of activity upon UV light illumination.[59] We indeed observed an increase in tadpole locomotion with UV and blue light compared to 550 nm light in the control condition (∼1.5-fold, Figures 6A,B and S5B,C, gray points). The photodependent effect of OptoNAM-3 on locomotion was therefore quantified by calculating the traveled distance normalized twice: by the tadpole baseline locomotion (to decrease interindividual variability linked to the locomotion speed) and, for each condition, by the locomotion of the control group (to remove the nonspecific effect of UV or blue light). […] Their locomotion could be restored to baseline activity with UV or blue light and inhibited again by 550 nm light for two cycles (Figure 6C,D and Movies S1 and S2). Consequently, OptoNAM-3 enabled fast and reversible control of tadpole locomotion using light. In addition, the compound red-shifted properties observed in vitro were conserved in vivo. OptoNAM-3 therefore holds great promise to photocontrol native GluN2B-NMDARs with the high biocompatibility of red-shifted photoswitches.[29],[31]\nXenopus laevis embryos were obtained from the European Xenopus Resource Centre (EXRC, Portsmouth, UK) or TEFOR Paris Sackay (Saclay, France), maintained in Modified Barth’s Saline (MBS) 0.1× (pH adjusted to 7.8 with NaOH), and supplemented with 10 μg/mL of gentamicin, in 10 cm Petri dishes with a maximum of 50 tadpoles per dish. The embryos were stored at 18 °C until they reached stage 49 (12–14 days postfertilization).[86] Experiments on Xenopus tadpoles were performed according to European Union guidelines (project authorization Apafis #44976–2023092616413977)\nFor the experiments (see Figure S5A), stage 49 X. laevis tadpoles were placed in the center of a 12-well plate at a density of three animals per well in 0.1× MBS. The 12-well plate was covered with a 3D-printed dome equipped with a liquid guide (15 cm) connected to a multichannel LED delivery system (CoolLed pE-4000) at the top. The plate was positioned on optical cast plastic infrared filters, which allowed only wavelengths above 650 nm to pass, and red light (770 nm at 15% intensity) was continuously applied during recording to enable video recording in the dark. […] Subsequently, the tadpoles were incubated in the dark for 30 min in a 60 × 15 mm Petri dish containing 5 mL of either the vehicle (0.1% DMSO in MBS 0.1×) or OptoNAM-3 solution (5 μM in MBS 0.1×) to facilitate drug penetration. Afterward, the tadpoles were transferred back to the 12-well plate, which contained either the vehicle solution or OptoNAM-3 (5 μM), and habituation to red light was performed again for 15 min. […]", "key": {"[1]": {"conditions": "Sup. Fig. 5B, UV/green cycles, second data block (c27-c50), raw"}}, "note": "Where “and” joins values, the source holds several entries; their conditions need not be identical. Identical values can stand only once."}
{"smiles": "c1ccc(/N=N/c2ccc(CCNc3ccncc3)cc2)cc1", "note": "[OptoNAM-3, (E)-N-(4-(Phenyldiazenyl)phenethyl)pyridin-4-amine]", "values": [{"measurement": "reduction in locomotor activity in the dark vs baseline", "setting": "UV/visible cycle protocol group", "result": 35, "unit": "%"}, {"measurement": "reduction in locomotor activity in the dark vs baseline", "setting": "blue/green cycle protocol group", "result": 50, "unit": "%"}, {"measurement": "Normalized travelled distance by tadpoles (/baseline/control), mean", "setting": "Fig 6C, 365 nm (1), UV/green light cycle experiment", "result": 1.089}, {"measurement": "Normalized travelled distance by tadpoles (/baseline/control), mean", "setting": "Fig 6C, 365 nm (2), UV/green light cycle experiment", "result": 0.883}, {"measurement": "Normalized travelled distance by tadpoles (/baseline/control), mean", "setting": "Fig 6C, 550 nm (1), UV/green light cycle experiment", "result": 0.484}, {"measurement": "Normalized travelled distance by tadpoles (/baseline/control), mean", "setting": "Fig 6C, 550 nm (2), UV/green light cycle experiment", "result": 0.221}, {"measurement": "Normalized travelled distance by tadpoles (/baseline/control), mean", "setting": "Fig 6C, dark, UV/green light cycle experiment", "result": 0.649}, {"measurement": "Normalized travelled distance by tadpoles (/baseline/control), mean", "setting": "Fig 6D, 460 nm (1), blue/green light cycle experiment", "result": 2.548}, {"measurement": "Normalized travelled distance by tadpoles (/baseline/control), mean", "setting": "Fig 6D, 460 nm (2), blue/green light cycle experiment", "result": 2.278}, {"measurement": "Normalized travelled distance by tadpoles (/baseline/control), mean", "setting": "Fig 6D, 550 nm (1), blue/green light cycle experiment", "result": 0.587}, {"measurement": "Normalized travelled distance by tadpoles (/baseline/control), mean", "setting": "Fig 6D, 550 nm (2), blue/green light cycle experiment", "result": 0.462}, {"measurement": "Normalized travelled distance by tadpoles (/baseline/control), mean", "setting": "Fig 6D, dark, blue/green light cycle experiment", "result": 0.509}, {"measurement": "Distance in mm, well mean of 3 tadpoles, uv 1 min", "setting": "Sup. Fig. 5B, UV/green cycles, first data block (c1-c24), raw", "result": "543.756 mm and 730.486 mm and 588.764 mm and 724.010 mm and 734.699 mm and 651.720 mm and 525.360 mm and 469.552 mm"}, {"measurement": "Distance in mm, well mean of 3 tadpoles, green2 1 min", "setting": "[1]", "result": "28.734 mm and 47.149 mm and 41.068 mm and 52.900 mm and 46.164 mm and 30.050 mm and 28.925 mm and 43.119 mm"}, {"measurement": "Distance in mm, well mean of 3 tadpoles, uv 1 min", "setting": "[1]", "result": "636.734 mm and 582.355 mm and 684.728 mm and 679.263 mm and 728.479 mm and 513.366 mm and 700.914 mm and 476.462 mm"}, {"measurement": "Normalized travelled distance by tadpoles (/baseline), single well", "setting": "Sup. Fig. 5B, 365 nm (1), individual wells", "result": "1.393 and 3.082 and 2.491 and 2.557 and 3.849 and 6.596 and 1.808 and 1.431 and 6.280 and 5.411 and 9.003 and 6.422 and 6.492"}, {"measurement": "Normalized travelled distance by tadpoles (/baseline), mean", "setting": "Sup. Fig. 5B, 365 nm (1), mean of 16 wells", "result": 4.878}, {"measurement": "Normalized travelled distance by tadpoles (/baseline), single well", "setting": "Sup. Fig. 5B, 365 nm (2), individual wells", "result": "1.002 and 2.077 and 1.181 and 1.514 and 2.542 and 5.415 and 1.765 and 1.460 and 5.497 and 4.718 and 10.726 and 5.196 and 4.515"}, {"measurement": "Normalized travelled distance by tadpoles (/baseline), mean", "setting": "Sup. Fig. 5B, 365 nm (2), mean of 16 wells", "result": 4.635}, {"measurement": "Normalized travelled distance by tadpoles (/baseline), single well", "setting": "Sup. Fig. 5B, 550 nm (1), individual wells", "result": "0.458 and 1.858 and 0.896 and 0.456 and 0.161 and 0.143 and 0.389 and 0.051 and 0.457 and 0.356 and 0.468 and 0.574 and 0.522"}, {"measurement": "Normalized travelled distance by tadpoles (/baseline), mean", "setting": "Sup. Fig. 5B, 550 nm (1), mean of 16 wells", "result": 0.561}, {"measurement": "Normalized travelled distance by tadpoles (/baseline), single well", "setting": "Sup. Fig. 5B, 550 nm (2), individual wells", "result": "0.073 and 0.057 and 0.075 and 0.047 and 0.119 and 0.187 and 0.194 and 0.072 and 0.283 and 0.438 and 0.540 and 0.500 and 0.411"}, {"measurement": "Normalized travelled distance by tadpoles (/baseline), mean", "setting": "Sup. Fig. 5B, 550 nm (2), mean of 16 wells", "result": 0.274}, {"measurement": "Normalized travelled distance by tadpoles (/baseline), single well", "setting": "Sup. Fig. 5B, dark, individual wells (each well is the mean of 3 tadpole)", "result": "0.095 and 0.145 and 0.255 and 0.231 and 0.246 and 0.190 and 0.129 and 0.073 and 0.384 and 0.405 and 0.424 and 0.476 and 0.614"}, {"measurement": "Normalized travelled distance by tadpoles (/baseline), mean", "setting": "Sup. Fig. 5B, dark, mean of 16 wells (each well is the mean of 3 tadpole)", "result": 0.393}, {"measurement": "Normalized travelled distance by tadpoles (/baseline)", "setting": "Sup. Fig. 5B, dark", "result": "0.643 and 0.955 and 1.031"}, {"measurement": "Normalized travelled distance by tadpoles (/baeline/control), single well", "setting": "Sup. Fig. 5C, 460 nm (1), individual wells", "result": "1.914 and 1.376 and 8.550 and 2.480 and 4.315 and 7.810 and 5.706 and 5.046 and 11.224 and 1.065 and 13.799 and 8.327 and 1.491"}, {"measurement": "Normalized travelled distance by tadpoles (/baeline/control), mean", "setting": "Sup. Fig. 5C, 460 nm (1), mean of 17 wells", "result": 6.279}, {"measurement": "Normalized travelled distance by tadpoles (/baeline/control), single well", "setting": "Sup. Fig. 5C, 460 nm (2), individual wells", "result": "2.036 and 1.506 and 10.137 and 2.268 and 4.306 and 11.041 and 6.016 and 15.287 and 9.339 and 1.297 and 11.889 and 4.687 and 3.893"}, {"measurement": "Normalized travelled distance by tadpoles (/baeline/control), mean", "setting": "Sup. Fig. 5C, 460 nm (2), mean of 17 wells", "result": 6.476}, {"measurement": "Normalized travelled distance by tadpoles (/baseline)", "setting": "Sup. Fig. 5C, 460 nm (2)", "result": "8.083 and 4.823 and 6.568 and 6.920"}, {"measurement": "Normalized travelled distance by tadpoles (/baeline/control), single well", "setting": "Sup. Fig. 5C, 550 nm (1), individual wells", "result": "0.384 and 0.350 and 1.155 and 0.578 and 0.301 and 1.159 and 2.310 and 0.844 and 0.446 and 0.287 and 2.947 and 0.796 and 0.259"}, {"measurement": "Normalized travelled distance by tadpoles (/baeline/control), mean", "setting": "Sup. Fig. 5C, 550 nm (1), mean of 17 wells", "result": 0.899}, {"measurement": "Normalized travelled distance by tadpoles (/baeline/control), single well", "setting": "Sup. Fig. 5C, 550 nm (2), individual wells", "result": "0.201 and 0.140 and 0.631 and 0.384 and 0.385 and 0.939 and 0.448 and 0.727 and 1.019 and 0.143 and 0.892 and 1.756 and 0.609"}, {"measurement": "Normalized travelled distance by tadpoles (/baeline/control), mean", "setting": "Sup. Fig. 5C, 550 nm (2), mean of 17 wells", "result": 0.702}, {"measurement": "Normalized travelled distance by tadpoles (/baseline)", "setting": "Sup. Fig. 5C, 550 nm (2)", "result": "1.231 and 0.815 and 0.780 and 0.842"}, {"measurement": "Normalized travelled distance by tadpoles (/baeline/control), single well", "setting": "Sup. Fig. 5C, dark, individual wells (each well is the mean of 3 tadpole)", "result": "0.118 and 0.080 and 0.825 and 0.228 and 0.352 and 1.330 and 0.587 and 0.877 and 0.773 and 0.144 and 0.553 and 0.717 and 0.589"}, {"measurement": "Normalized travelled distance by tadpoles (/baeline/control), mean", "setting": "Sup. Fig. 5C, dark, mean of 17 wells (each well is the mean of 3 tadpole)", "result": 0.520}, {"measurement": "Normalized travelled distance by tadpoles (/baseline)", "setting": "Sup. Fig. 5C, dark", "result": "0.453 and 0.357 and 0.524 and 0.331"}]}
